Measurements from patent publication US20100119599A1 (ARCHER PHARMACEUTICALS, INC., priority 2006, published 2010).

Experiments:
Aβ1-42 = assay: Measurement of Aβ1-42 in culture medium of 7W WT APP751 CHO cells by ELISA; type: cell-based, Chinese hamster; conditions: for activity at 5 µM: Cricetulus griseus, Table 1, 5 μM test compound, CHO cells stably transfected with human APP751, culture medium, ELISA, control DMSO, 0 = no detectable amount, read-out: Aβ1-42 (% of control); for Aβ1-42 (% of control): CHO cells that overexpress APP751, zero = below the detection limit of the assay
Aβ1-40 = assay: Measurement of Aβ1-40 in culture medium of 7W WT APP751 CHO cells by ELISA; type: cell-based, Chinese hamster; conditions: for activity at 5 µM: Cricetulus griseus, Table 1, 5 μM test compound, CHO cells stably transfected with human APP751, culture medium, ELISA, control DMSO, 0 = no detectable amount; for Aβ1-40 (% of control): CHO cells that overexpress APP751, zero = below the detection limit of the assay
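Also: 5 µM test compound but RI-coded compounds at 10 µM for 24 hours.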

Structure (SMILES)	activity at 5 µM (Aβ1-42)	activity at 5 µM (Aβ1-40)	Aβ1-42 (% of control) (Aβ1-42)	Aβ1-40 (% of control) (Aβ1-40)
CCCOc1ccc(C2C(C(=O)OCc3ccc(OC)cc3)=C(C)NC3=C2C(=O)CC(C)(C)C3)cc1OC (stereo not drawn) [ST016979, (4-methoxyphenyl)methyl 4-(3-methoxy-4-propoxyphenyl)-2,7,7-trimethyl-5-oxo-1,4,6,7,8-pentahydroquinoline-3-carboxylate]	90.1%	53.7%		
COc1ccc(OC)c(C2C(C#N)=C(C)NC3=C2C(=O)CC(c2ccccc2)C3)c1 (stereo not drawn) [ST018638, 4-(2,5-dimethoxyphenyl)-2-methyl-5-oxo-7-phenyl-1,4,6,7,8-pentahydroquinoline-3-carbonitrile]	53.8%	45.4%		
CCc1ccc(NC(=O)CSC2=C(C#N)C(c3cccs3)C(C(=O)Nc3ccccc3)=C(C)N2)cc1 (stereo not drawn) [RI_61]			51.4 % of control	68.5 % of control
CC1=C(C(=O)Nc2ccccc2)C(c2ccsc2)C(C#N)=C(SCC(=O)Nc2ccc(C(C)C)cc2)N1 (stereo not drawn) [RI_46]			70.2 % of control	74.4 % of control
CCCCOC(=O)C1=C(C)NC2=C(C(=O)CCC2)C1c1ccccc1OCCC (stereo not drawn) [ST013325, butyl 2-methyl-5-oxo-4-(2-propoxyphenyl)-1,4,6,7,8-pentahydroquinoline-3-carboxylate]	69.4%	28.5%		
CC1=C(C(=O)OCC(C)C)C(c2ccc(F)c(F)c2)C2=C(CCCC2=O)N1 (stereo not drawn) [ST052345, 2-methylpropyl 4-(3,4-difluorophenyl)-2-methyl-5-oxo-1,4,6,7,8-pentanydroquinoline-3-carboxylate]	7.81%	43.6%		
CC1=C(C(=O)Nc2ccccc2)C(c2cccs2)C(C#N)=C(SCC(=O)NCCC(C)(C)C)N1 (stereo not drawn) [RI_17]			24.1 % of control	18.2 % of control
CCOCCOC(=O)C1=C(C)NC2=C(C(=O)CC(C)(C)C2)C1c1ccc(O)c(OC)c1 (stereo not drawn) [ST013343, 2-ethoxyethyl 4-(4-hydroxy-3-methoxyphenyl)-2,7,7-trimethyl-5-oxo-1,4,6,7,8-pentahydroquinoline-3-carboxylate]	83%	61.1%		
CC1=C(C(=O)Nc2ccc(Cl)cc2)C(c2ccccc2)C(C#N)=C(SCC(=O)Nc2ccccc2C)N1 (stereo not drawn) [RI_40]			43.2 % of control	25.7 % of control
CC1=C(C(=O)OCCOc2ccccc2)C(c2cccc(O)c2)C2=C(CC(c3ccccc3)CC2=O)N1 (stereo not drawn) [ST017315, 2-phenoxyethyl 4-(3-hydroxyphenyl)-2-methyl-5-oxo-7-phenyl-1,4,6,7,8-pentahydroquinoline-3-carboxylate]	53.9%	43.8%		
CCc1ccc(C2C(C(=O)OC(C)CC)=C(C)NC3=C2C(=O)CC(c2ccc(OC)cc2)C3)cc1 (stereo not drawn) [ST017092, methylpropyl 4-(4-ethylphenyl)-7-(4-methoxyphenyl)-2-methyl-5-oxo-1,4,6,7,8-pentahydroquinoline-3-carboxylate]	30.9%	41.3%		
COC(=O)C1=CN(CC2CCCO2)C=C(C(=O)OC)C1c1cccc(Br)c1 (stereo not drawn) [ST051569, methyl 4-(3-bromophenyl)-5-(methoxycarbonyl)-1-(oxolan-2-ylmethyl)-1,4-dihydropyridine-3-carboxylate]			72.77 % of control	49.02 % of control
CCc1ccc(C2C(C(=O)OC)=CNC=C2C(=O)OC)cc1 [ST052274, methyl 4-(4-ethylphenyl)-5-(methoxycarbonyl)-1,4-dihydropyridine-3-carboxylate]			0 % of control	4.952 % of control
COC(=O)C1=C(C)NC2=C(C(=O)CCC2)C1c1cc(Br)c(O)c(OC)c1 (stereo not drawn) [ST013141, methyl 4-(3-bromo-4-hydroxy-5-methoxyphenyl)-2-methyl-5-oxo-1,4,6,7,8-pentahydroquinoline-3-carboxylate]	23.7%	89.7%		
CC1=C(C(=O)OCCc2ccccc2)C(c2ccc([N+](=O)[O-])cc2)C2=C(CC(c3ccccc3)CC2=O)N1 (stereo not drawn) [ST015255, 2-phenylethyl 2-methyl-4-(4-nitrophenyl)-5-oxo-7-phenyl-1,4,6,7,8-pentahydroquinoline-3-carboxylate]	74.7%	40.5%		
COC(=O)C1=C(C)NC(C)=C(C(=O)OC)C1c1cccc(Br)c1 [ST208634, methyl 4-(3-bromophenyl)-5-(methoxycarbonyl)-2,6-dimethyl-1,4-dihydropyridine-3-carboxylate]			32.51 % of control	80.5 % of control
CC1=C(C(=O)OCCOc2ccccc2)C(c2ccccc2Br)C2=C(CCCC2=O)N1 (stereo not drawn) [ST052219, 2-phenoxyethyl 4-(2-bromophenyl)-2-methyl-5-oxo-1,4,6,7,8-pentahydroquinoline-3-carboxylate]	24.7%	14%		

Structure (SMILES)	activity at 5 µM (Aβ1-42)	activity at 5 µM (Aβ1-40)	Aβ1-42 (% of control) (Aβ1-42)	Aβ1-40 (% of control) (Aβ1-40)
N#CC1=C(N)N(Cc2ccccc2)C2=C(COC/C2=C/c2cccnc2)C1c1cccnc1 (stereo not drawn) [ST014245, 2-amino-1-benzyl-4-(3-pyridyl)-8-(3-pyridylmethylene)-1,4,7-trihydro-5H-pyrano[4,3-b]pyridine-3-carbonitrile]			53.59 % of control	75.44 % of control
CC1=C(C(=O)OC(C)(C)C)C(c2ccc(Cl)cc2)C(C#N)=C(SCC(=O)Nc2cc(C)ccc2C)N1 (stereo not drawn) [ST050428, tert-butyl 6-{[N-(2,5-dimethylphenyl)carbamoyl]methylthio}-4-(4-chlorophenyl)-5-cyano-2-methyl-1,4-dihydropyridine-3-carboxylate]			65.47 % of control	95.74 % of control
CC1=C(C(=O)Nc2ccccc2)C(c2cccs2)C(C#N)=C(SCC(=O)Nc2ccccc2C)N1 (stereo not drawn) [ST050837, 2-[3-cyano-6-methyl-5-(N-phenylcarbamoyl)-4-(2-thienyl)(2-1,4-dihydropyridylthio)]-N-(2-methylphenyl)acetamide]			41.29 % of control	95.44 % of control
CCOC(=O)C1=C(C)NC2=C(C(=O)CCC2)C1c1cccc(F)c1 (stereo not drawn) [ST013162, ethyl 4-(3-fluorophenyl)-2-methyl-5-oxo-1,4,6,7,8-pentahydroquinoline-3-carboxylate]	36.3%	33.4%		
CCOCCOC(=O)C1=C(C)NC2=C(C(=O)CC(c3ccccc3)C2)C1c1ccc(Br)cc1 (stereo not drawn) [ST017313, 2-ethoxyethyl 4-(4-bromophenyl)-2-methyl-5-oxo-7-phenyl-1,4,6,7,8-pentahydroquinoline-3-carboxylate]	85.4%	44.2%		
CCOC(=O)C1=CN(c2cc(C)ccc2C)C=C(C(=O)OCC)C1c1ccccc1OCC [ST052488, ethyl 1-(2,5-dimethylphenyl)-5-(ethoxycarbonyl)-4-(2-ethoxyphenyl)-1,4-dihydropyridine-3-carboxylate]			57.75 % of control	60.3 % of control
CC1=C(C(=O)OC2CCCCC2)C(c2cccc(Cl)c2)C2=C(CCCC2=O)N1 (stereo not drawn) [ST015159, cyclohexyl 4-(3-chlorophenyl)-2-methyl-5-oxo-1,4,6,7,8-pentahydroquinoline-3-carboxylate]	0%	2.98%		
CCC(C)OC(=O)C1=C(C)NC2=C(C(=O)CC(c3ccccc3)C2)C1c1ccc(Cl)c(Cl)c1 (stereo not drawn) [ST017319, methylpropyl 4-(3,4-dichlorophenyl)-2-methyl-5-oxo-7-phenyl-1,4,6,7,8-pentahydroquinoline-3-carboxylate]	97.5%	26.8%		
CCOCCOC(=O)C1=C(C)NC2=C(C(=O)CC(c3ccccc3)C2)C1c1ccccc1F (stereo not drawn) [ST017312, 2-ethoxyethyl 4-(2-fluorophenyl)-2-methyl-5-oxo-7-phenyl-1,4,6,7,8-pentahydroquinoline-3-carboxylate]	71.2%	15.3%		
COC(=O)C1=C(C)NC2=C(C(=O)CC(c3cccs3)C2)C1c1cc(OC)c(Br)cc1OC (stereo not drawn) [ST045143, methyl 4-(4-bromo-2,5-dimethoxyphenyl)-2-methyl-5-oxo-7-(2-thienyl)-1,4,6,7,8-pentahydroquinoline-3-carboxylate]	16%	22.9%		
CSC1=C(C#N)C(c2ccc(Cl)cc2)C(C(=O)OC(C)(C)C)=C(C)N1 (stereo not drawn) [ST050983, tert-butyl 4-(4-chlorophenyl)-5-cyano-2-methyl-6-methylthio-1,4-dihydropyridine-3-carboxylate]			0 % of control	51.3 % of control
COC(=O)C1=C(C)NC(C)=C(C(=O)OC)C1c1ccc(Br)cc1 [ST208633, methyl 4-(4-bromophenyl)-5-(methoxycarbonyl)-2,6-dimethyl-1,4-dihydropyridine-3-carboxylate]			0 % of control	9.12 % of control
CCCCOC(=O)C1=C(C)NC2=C(C(=O)CCC2)C1c1ccccc1OC (stereo not drawn) [ST013324, butyl 4-(2-methoxyphenyl)-2-methyl-5-oxo-1,4,6,7,8-pentahydroquinoline-3-carboxylate]	93.7%	54.3%		
COc1cc(CNC(=O)CSC2=C(C#N)C(c3cccs3)C(C(=O)Nc3ccccc3)=C(C)N2)cc(OC)c1OC (stereo not drawn) [RI_18]			44.1 % of control	49.2 % of control
CCc1cccc(NC(=O)CSC2=C(C#N)C(c3ccc(-c4ccco4)s3)C(C(=O)Nc3ccccc3)=C(C)N2)c1 (stereo not drawn) [RI_85]			46.7 % of control	98.5 % of control
COc1ccc(COC(=O)C2=C(C)NC3=C(C(=O)CCC3)C2c2cccs2)cc1 (stereo not drawn) [ST052371, (4-methoxyphenyl)methyl 2-methyl-5-oxo-4-(2-thienyl)-1,4,6,7,8-pentahydroquinoline-3-carboxylate]	92.5%	59.8%		
